In patent publication US9351974B2, “Substituted pteridinones for the treatment of cancer” (OSI Pharmaceuticals, LLC, priority 2011, dated 2016):

Target: T1, His-tagged full-length RSK2 (RPS6KA3) (Homo sapiens, UniProt P51812)
T1 construct: His-tagged full-length RSK2 (RPS6KA3, Invitrogen PV3323); His; purchased Invitrogen PV3323
Experiment: RSK2 Omnia Assay for compound IC50 determination
Format: biochemical
Conditions: ATP 15 μM, n=2, read-out: Mean RSK2 Biochem IC50
How it was run: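 Continuous fluorescence assay (ex 360/em 485 nm) of SOX-peptide (Omnia ST Peptide 6, 5 μM) phosphorylation with ATP 15 μM (Km 16.3 μM). Enzyme was […], in pH 7.5 HEPES/MgCl2 buffer with 1% DMSO. IC50 came from 11-point threefold dilutions ([…]) by four-parameter fit of initial slopes, in duplicate; Ki by Cheng-Prusoff assuming competitive inhibition.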

T1 sequence (P51812 whole entry): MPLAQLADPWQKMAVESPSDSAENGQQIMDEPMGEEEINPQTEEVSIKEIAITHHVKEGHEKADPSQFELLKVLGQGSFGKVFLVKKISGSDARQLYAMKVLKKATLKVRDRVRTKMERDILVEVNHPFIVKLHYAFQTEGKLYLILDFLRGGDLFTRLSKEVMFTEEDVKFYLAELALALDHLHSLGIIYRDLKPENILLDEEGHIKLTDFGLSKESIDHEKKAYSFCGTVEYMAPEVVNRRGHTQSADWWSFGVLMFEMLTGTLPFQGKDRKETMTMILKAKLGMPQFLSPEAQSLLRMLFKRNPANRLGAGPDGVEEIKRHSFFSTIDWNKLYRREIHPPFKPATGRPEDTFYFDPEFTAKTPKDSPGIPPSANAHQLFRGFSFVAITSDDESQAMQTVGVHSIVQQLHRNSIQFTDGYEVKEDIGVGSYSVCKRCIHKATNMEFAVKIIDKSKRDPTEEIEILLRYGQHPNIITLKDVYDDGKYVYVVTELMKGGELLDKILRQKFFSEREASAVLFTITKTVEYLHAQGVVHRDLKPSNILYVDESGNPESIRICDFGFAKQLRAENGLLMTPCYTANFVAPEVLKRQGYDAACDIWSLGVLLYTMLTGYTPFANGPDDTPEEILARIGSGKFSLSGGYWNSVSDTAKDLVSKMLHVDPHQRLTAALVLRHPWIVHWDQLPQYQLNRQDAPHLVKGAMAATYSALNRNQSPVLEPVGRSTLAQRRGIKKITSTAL

Row | IC50 [nM] | Compound
1 | ≤ 100 | Cc1ccc(N2C(=O)[C@@H](C)N(C3CCCCC3)c3nc(Nc4ccc5[nH]ncc5c4)ncc32)cc1F [compound 121, (7R)-8-cyclohexyl-5-(3-fluoro-4-methylphenyl)-2-(1H-indazol-5-ylamino)-7-methyl-7,8-dihydropteridin-6(5H)-one]
2 | ≤ 100 | COc1cccc(N2C(=O)[C@@H](C)N(C3CCCCC3)c3nc(Nc4ccc5[nH]ncc5c4)ncc32)c1 [Example 28, (7R)-8-cyclohexyl-2-(1H-indazol-5-ylamino)-5-(3-methoxyphenyl)-7-methyl-7,8-dihydropteridin-6(5H)-one]
3 | ≤ 100 | C[C@@H]1C(=O)N(c2cccc(C#N)c2)c2cnc(Nc3cc4cn[nH]c4cc3Cl)nc2N1C1CCCCC1 [compound 118, 3-[(7R)-2-[(6-chloro-1H-indazol-5-yl)amino]-8-cyclohexyl-7-methyl-6-oxo-7,8-dihydropteridin-5(6H)-yl]benzonitrile]
4 | ≤ 100 | C[C@@H]1C(=O)N(c2ccc(F)c(C#N)c2)c2cnc(Nc3ccc4[nH]ncc4c3)nc2N1C1CCCCC1 [compound 96, 5-[(7R)-8-cyclohexyl-2-(1H-indazol-5-ylamino)-7-methyl-6-oxo-7,8-dihydropteridin-5(6H)-yl]-2-fluorobenzonitrile]
5 | ≤ 100 | C[C@@H]1C(=O)N(c2cccc(C#N)c2)c2cnc(Nc3ccc4[nH]ncc4c3)nc2N1C1CCC(F)(F)CC1 [compound 261, 3-[(7R)-8-(4,4-difluorocyclohexyl)-2-(1H-indazol-5-ylamino)-7-methyl-6-oxo-7,8-dihydropteridin-5(6H)-yl]benzonitrile]
6 | ≤ 100 | C[C@@H]1C(=O)N(c2cccc(F)c2)c2cnc(Nc3ccc4[nH]ncc4c3)nc2N1C1CCCCC1 [Example 25, (7R)-8-cyclohexyl-5-(3-fluorophenyl)-2-(1H-indazol-5-ylamino)-7-methyl-7,8-dihydropteridin-6(5H)-one]
7 | 100 to 1000 | C[C@@H]1C(=O)N(c2cccc(C#N)c2)c2cnc(Nc3ccc(F)c4[nH]ncc34)nc2N1C1CCCCC1 [compound 107, 3-[(7R)-8-cyclohexyl-2-[(7-fluoro-1H-indazol-4-yl)amino]-7-methyl-6-oxo-7,8-dihydropteridin-5(6H)-yl]benzonitrile]
8 | ≤ 100 | COc1n[nH]c2ccc(Nc3ncc4c(n3)N(C3CCCCC3)[C@H](C)C(=O)N4c3cccc(C#N)c3)cc12 [compound 116, 3-[(7R)-8-cyclohexyl-2-[(3-methoxy-1H-indazol-5-yl)amino]-7-methyl-6-oxo-7,8-dihydropteridin-5(6H)-yl]benzonitrile]
9 | ≤ 100 | C[C@@H]1C(=O)N(c2cccc(C#N)c2)c2cnc(Nc3cc(F)c4[nH]c(=O)oc4c3)nc2N1C1CCCCC1 [compound 169, 3-[(7R)-8-cyclohexyl-2-[(4-fluoro-2-oxo-2,3-dihydro-1,3-benzoxazol-6-yl)amino]-7-methyl-6-oxo-7,8-dihydropteridin-5(6H)-yl]benzonitrile]

Continued, compound first:

Row | Compound | IC50 [nM]
10 | C[C@@H]1C(=O)N(c2cccc(C#N)c2)c2cnc(Nc3ccc4[nH]ncc4c3)nc2N1CC1CCOCC1 [Example 80, 3-[(7R)-2-(1H-indazol-5-ylamino)-7-methyl-6-oxo-8-(tetrahydro-2H-pyran-4-ylmethyl)-7,8-dihydropteridin-5(6H)-yl]benzonitrile] | ≤ 100
11 | CC(C)CCN1c2nc(Nc3ccc4[nH]ncc4c3)ncc2N(c2ccccc2)C(=O)[C@H]1C [Example 16, (7R)-2-(1H-indazol-5-ylamino)-7-methyl-8-(3-methylbutyl)-5-phenyl-7,8-dihydropteridin-6(5H)-one] | ≤ 100
12 | C[C@@H]1C(=O)N(c2cccc(N(C)C)c2)c2cnc(Nc3ccc4[nH]ncc4c3)nc2N1C1CCCCC1 [Example 44, (7R)-8-cyclohexyl-5-[3-(dimethylamino)phenyl]-2-(1H-indazol-5-ylamino)-7-methyl-7,8-dihydropteridin-6(5H)-one] | ≤ 100
13 | COc1ccc(N2C(=O)[C@@H](C)N(C3CCCCC3)c3nc(Nc4cc(F)c5[nH]ncc5c4)ncc32)cn1 [compound 138, (7R)-8-cyclohexyl-2-[(7-fluoro-1H-indazol-5-yl)amino]-5-(6-methoxypyridin-3-yl)-7-methyl-7,8-dihydropteridin-6(5H)-one] | ≤ 100
14 | Cc1ccc(N2C(=O)[C@@H](C)N(C3CCCCC3)c3nc(Nc4ccc5[nH]ncc5c4)ncc32)cn1 [compound 113, (7R)-8-cyclohexyl-2-(1H-indazol-5-ylamino)-7-methyl-5-(6-methylpyridin-3-yl)-7,8-dihydropteridin-6(5H)-one] | ≤ 100
15 | CC(C)Oc1ccc(N2C(=O)[C@@H](C)N(C3CCC(F)(F)CC3)c3nc(Nc4cc(F)c5[nH]c(=O)oc5c4)ncc32)cc1C#N [compound 278, 5-[(7R)-8-(4,4-difluorocyclohexyl)-2-[(4-fluoro-2-oxo-2,3-dihydro-1,3-benzoxazol-6-yl)amino]-7-methyl-6-oxo-7,8-dihydropteridin-5(6H)-yl]-2-(propan-2-yloxy)benzonitrile] | ≤ 100
16 | COc1ccc(N2C(=O)[C@@H](C)N([C@H]3CC[C@H](C)CC3)c3nc(Nc4ccc5[nH]c(=O)oc5c4)ncc32)cc1C#N [compound 244, 2-methoxy-5-[(7R)-7-methyl-8-(trans-4-methylcyclohexyl)-6-oxo-2-[(2-oxo-2,3-dihydro-1,3-benzoxazol-6-yl)amino]-7,8-dihydropteridin-5(6H)-yl]benzonitrile] | ≤ 100
17 | [2H]C1([2H])C(N2c3nc(Nc4cc(F)c5[nH]ncc5c4)ncc3N(c3cccnc3)C(=O)[C@H]2C)C([2H])([2H])C([2H])([2H])C([2H])([2H])C1([2H])[2H] [compound 301, (7R)-8-[(2,2,3,3,4,4,5,5,6,6-2H10)cyclohexyl]-2-[(7-fluoro-1H-indazol-5-yl)amino]-7-methyl-5-(pyridin-3-yl)-7,8-dihydropteridin-6(5H)-one] | ≤ 100
18 | COC(=O)c1cccc(Nc2ncc3c(n2)N(CCC(C)C)C(C)C(=O)N3c2ccccc2)c1 (centres unmarked) [Example 10, methyl 3-{[7-methyl-8-(3-methylbutyl)-6-oxo-5-phenyl-5,6,7,8-tetrahydropteridin-2-yl]amino}benzoate] | > 1000
19 | C[C@@H]1C(=O)N(c2cccc(C#N)c2)c2cnc(Nc3cc4cn[nH]c4cn3)nc2N1C1CCC(F)(F)CC1 [compound 268, 3-[(7R)-8-(4,4-difluorocyclohexyl)-7-methyl-6-oxo-2-(1H-pyrazolo[3,4-c]pyridin-5-ylamino)-7,8-dihydropteridin-5(6H)-yl]benzonitrile] | 100 to 1000
20 | C[C@@H]1C(=O)N(c2ccc(N3CCN(C)CC3)nc2)c2cnc(Nc3cc(F)c4[nH]ncc4c3)nc2N1C1CCOCC1 [compound 193, (7R)-2-[(7-fluoro-1H-indazol-5-yl)amino]-7-methyl-5-[6-(4-methylpiperazin-1-yl)pyridin-3-yl]-8-(tetrahydro-2H-pyran-4-yl)-7,8-dihydropteridin-6(5H)-one] | ≤ 100
21 | C[C@@H]1C(=O)N(c2cccc(C#N)c2)c2cnc(Nc3cc(F)c(O)c(F)c3)nc2N1[C@H]1CC[C@H](C(F)(F)F)CC1 [compound 259, 3-[(7R)-2-[(3,5-difluoro-4-hydroxyphenyl)amino]-7-methyl-6-oxo-8-[trans-4-(trifluoromethyl)cyclohexyl]-7,8-dihydropteridin-5(6H)-yl]benzonitrile] | ≤ 100
22 | COc1cc(N2C(=O)[C@@H](C)N(C3CCCCC3)c3nc(Nc4ccc5[nH]ncc5c4)ncc32)cc(OC)c1OC [Example 38, (7R)-8-cyclohexyl-2-(1H-indazol-5-ylamino)-7-methyl-5-(3,4,5-trimethoxyphenyl)-7,8-dihydropteridin-6(5H)-one] | ≤ 100
23 | CC1C(=O)N(c2ccccc2)c2cnc(Nc3ccc4[nH]ncc4c3)nc2N1c1ccccc1 (centres unmarked) [Example 178, 2-(1H-indazol-5-ylamino)-7-methyl-5,8-diphenyl-7,8-dihydropteridin-6(5H)-one] | ≤ 100
24 | C[C@@H]1C(=O)N(c2cccnc2)c2cnc(Nc3cc(F)c4[nH]ncc4c3)nc2N1[C@H]1CC[C@@H](C)CC1 [compound 240, (7R)-2-[(7-fluoro-1H-indazol-5-yl)amino]-7-methyl-8-(cis-4-methylcyclohexyl)-5-(pyridin-3-yl)-7,8-dihydropteridin-6(5H)-one] | ≤ 100
25 | C[C@@H]1C(=O)N(c2ccc(N3CCCCC3)nc2)c2cnc(Nc3cc(F)c4[nH]ncc4c3)nc2N1C1CCCCC1 [compound 142, (7R)-8-cyclohexyl-2-[(7-fluoro-1H-indazol-5-yl)amino]-7-methyl-5-[6-(piperidin-1-yl)pyridin-3-yl]-7,8-dihydropteridin-6(5H)-one] | ≤ 100
26 | COc1ccc(N2C(=O)[C@@H](C)N(C3CCCCC3)c3nc(Nc4cc(F)c5[nH]ncc5c4)ncc32)cc1OC [compound 132, (7R)-8-cyclohexyl-5-(3,4-dimethoxyphenyl)-2-[(7-fluoro-1H-indazol-5-yl)amino]-7-methyl-7,8-dihydropteridin-6(5H)-one] | ≤ 100
27 | (7R)-8-cyclohexyl-2-[(7-fluoro-1H-indazol-5-yl)amino]-7-methyl-5-[4-(morpholin-4-yl)phenyl]-7,8-dihydropteridin-6(5H)-one [compound 134] | ≤ 100
28 | N#Cc1cccc(N2C(=O)[C@H]3CCCN3c3nc(Nc4cc(F)c5[nH]ncc5c4)ncc32)c1 [Example 84, 3-[(6aR)-2-[(7-fluoro-1H-indazol-5-yl)amino]-6-oxo-6a,7,8,9-tetrahydropyrrolo[2,1-h]pteridin-5(6H)-yl]benzonitrile] | 100 to 1000
29 | C[C@@H]1C(=O)N(c2cccc(C#N)c2)c2cnc(Nc3cc(F)c4[nH]ncc4c3)nc2N1c1ccc(F)cc1 [compound 180] | ≤ 100
